Test results taken from patent US12247032B2, “Substituted pyrazolo[1,5-a]pyrimidines as inhibitors of JAK kinases” (Genentech, Inc., priority 2019, dated 2025).

Target: T1, recombinant human JAK1 kinase domain protein (Residues 854-1154) (Homo sapiens, UniProt P23458)
T1 construct: human JAK1 kinase domain protein (Residues 854-1154); purchased Proteros Biostructures GmbH (Martinsried, Germany); host or cells: insect cells
Test: JAK1 biochemical assay (microfluidic mobility shift, peptide phosphorylation)
Conditions: 25 μM ATP, 1 nM total JAK1; Ki calculated from Ki app (tight-binding, competitive); read-out: Biochem JAK1 Ki
Outline: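 Insect-cell-expressed human JAK1 (1 nM, residues 854-1154) or JAK2 (0.2 nM, residues 812-1132) phosphorylating 1.5 μM 5-FAM peptide Y-1B with 25 μM ATP, pH 7.2 HEPES, 30 min at 22-23 °C; twelve concentrations up to 1000 nM in duplicate. Mobility-shift % conversion fitted to tight-binding quadratic for Ki^app.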

T1 sequence (P23458 854-1154): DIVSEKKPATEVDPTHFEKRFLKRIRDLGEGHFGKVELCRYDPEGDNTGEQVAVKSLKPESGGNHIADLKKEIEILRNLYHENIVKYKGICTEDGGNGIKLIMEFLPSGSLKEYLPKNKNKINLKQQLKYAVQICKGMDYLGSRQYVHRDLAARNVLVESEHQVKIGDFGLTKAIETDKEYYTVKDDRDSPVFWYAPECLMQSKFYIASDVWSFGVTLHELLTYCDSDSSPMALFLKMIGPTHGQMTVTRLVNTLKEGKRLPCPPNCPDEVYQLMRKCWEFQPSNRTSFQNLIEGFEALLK

Q: For `O=C(Nc1cn(Cc2nnn(C3CCNC3)n2)nc1-c1cc(OC(F)F)ccc1OC(F)F)c1cnn2cccnc12` (single isomer, unassigned) [Example 27, N-[3-[2,5-bis(difluoromethoxy)phenyl]-1-[(2-pyrrolidin-3-yltetrazol-5-yl)methyl]pyrazol-4-yl]pyrazolo[1,5-a]pyrimidine-3-carboxamide], which Ki is on record?
A: The Ki was 0.35 nM.
